One experiment deals with hind paw edema. The experiment is described as follows: Anti-inflammatory activity: hind paw edema in adjuvant (Mycobacterium butyricum) arthritis rats. Format: in vivo, rat (female Lewis). The note with it: 1 mg/kg per day, dosed once daily for 4 days, paw volumes measured on fifth day. As to the method: The effectiveness of the micronized sample as an anti-inflammatory agent and its comparison to the pulverized form was evaluated.
This study is a modification of the method described by Wong, et al in the Journal of Pharmacology and Experimental Therapeutics, Vol. 185: No. 1, pages 127-138 (1973).
The left and right rear paws of female Lewis rats (Charles River Laboratories) weighing 160-180 grams each were measured by mercury displacement prior to injection (Day Zero).
Adjuvant arthritis was induced in this rat colony by subcutaneous injection of Mycobacterium butyricum (0.75 mg in 0.1 ml light mineral oil, Fisher) using an automated Cornwall syringe. On days 11-15 post-adjuvant, the injected animals with 0.25 to 0.76 ml paw edema were selected and distributed evenly, according to edema size, into control and experimental groups of ten rats each. Vehicle control and drug treatments were assigned to the groups at random. […] All animals were dosed once daily for 4 days and on the fifth day both hind paw volumes were again measured using mercury displacement.
The hind paw edema was determined for each rat by subtracting the hind paw volume measured on Day Zero from the hind paw volume measured on the fifth day of the study. Group means were determined and the drug effect was calculated as percent inhibition of the hind paw edema according to the following equation: […]

The subject of a further experiment is adjuvant polyarthritis. The experiment is described as follows: Adjuvant polyarthritis in polyarthritic injected rats (hind feet weight). In kind it is in vivo, rat (male Lewis). The conditions noted are these: for ED50: oral once daily for 5 days (Days 9-13), hind feet weighed Day 15, 21600 min. As to the method: The object of this study was to compare the anti-inflammatory activity of the micronized and unmicronized samples when administered orally to polyarthritic injected rats.
This anti-inflammatory study was conducted according to the method described by Chang, Y., Pearson, C.M. and Abe, C. in Arthritis and Rheumatism, Volume 23: pp. 62-71 (1980).
Male Lewis rats weighing 200 to 220 grams were divided into groups of 5 and housed in hanging cages with food and water ad libitum. On Day Zero they were injected with 7.5 mg of N,N-dioctadecyl-N',N'bis(2-hydroxyethyl)propane diamine suspended in mineral oil subcutaneously at the base of the tail. On Day 9 the animals were weighed and compound administration was begun. The micronized and unmicronized samples described in Example 1, Steps A and B, were suspended in solution using a tissue homogenizer in 1% carboxy methyl cellulose. These compounds were administered orally once daily for 5 days (Days 9-13) with no dosing on day 14. On Day 15, the hind feet were removed just above the ankle joint and weighed, and percent difference from the diseased control was calculated.

For the next experiment, the system named is acetylcholine writhing. The experiment is described as follows: mouse acetylcholine writhing test (analgesic activity). The conditions noted are these: 1 mg/kg oral, 4 hours before intraperitoneal acetylcholine; writhes counted for 10 minutes. In kind it is in vivo, mouse (CD-1). Here is the method:
This study was performed to evaluate and compare the analgesic effectiveness of the micronized and pulverized samples described in Example 1, Step A and Example 1, Step B. Analgesic activity was evaluated via the mouse acetylcholine writhing test using a modification of the procedure described by Collier et al in Nature (New Biol.), Volume 204: page 1316 (1964) and the British Journal of Pharmacology, Chemotherapy, Volume 32: page 295 (1968).
The test groups consisted of ten mile CD-1 mice (Charles River Laboratories) weighing 18-28 grams each. Test compounds suspended in 0.25% methylcellulose solution were administered orally by gavage and four hours later the mice were injected intraperitoneally with acetylcholine (0.55 mg/ml in 0.25% methyl cellulose). The number of writhes in each group of mice were counted for 10 minutes immediately following the injection of acetylcholine and percent inhibition was calculated as follows: […]
(In writhing tests, fewer writhes than in controls are read as antinociception.)

For the molecule `CN1OCCC(=Cc2cc(C(C)(C)C)c(O)c(C(C)(C)C)c2)C1=O` [Example 1, Step A, dihydro-4-(3,5-di-tert-butyl-4-hydroxy-benzylidene)-2-methyl-2H-1,2-oxazin-3(4H)-one], the “% Inhibition (hind paw edema)” value with hind paw edema (listed as Example 1, Step B micronized) came to 35%. Moreover, the ED50 in the experiment with adjuvant polyarthritis was 2.8 mg/kg. Also, the “increase in potency of micronized compared to unmicronized sample” value with adjuvant polyarthritis (ratio of ED50, adjuvant polyarthritis) is recorded as “almost six fold increase in potency”. Further, the “% Inhibition (acetylcholine writhing assay)” value in the experiment on acetylcholine writhing came out at 100%.

As for `CN1OCCC(=Cc2cc(C(C)(C)C)c(O)c(C(C)(C)C)c2)C1=O` [Example 1, Step B, dihydro-4-(3,5-di-tert-butyl-4-hydroxy-benzylidene)-2-methyl-2H-1,2-oxazin-3(4H)-one], in the experiment on hind paw edema, the “% Inhibition (hind paw edema)” value is given as 20%. Moreover, the ED50 with adjuvant polyarthritis is 16.2 mg/kg. Also, the “% Inhibition (acetylcholine writhing assay)” value in the experiment on acetylcholine writhing is 63%.

`CN1OCCC(=Cc2cc(C(C)(C)C)c(O)c(C(C)(C)C)c2)C1=O` [active ingredient, dihydro-4-(3,5-di-tert-butyl-4-hydroxybenzylidene)-2-methyl-2H-1,2-oxazin-3(4H)-one]: the “degree of increase in anti-inflammatory effectiveness attributable to micronization vs unmicronized product” value in the experiment with adjuvant polyarthritis (general statement, test not named) is reported as “at least six fold”.

One may read the ED50 as the dose at which the effect has come halfway, by size or by number of responders.

These data come from US5271944A, “Pharmacologically enhanced formulations” (Biofor, Ltd., priority 1991, dated 1993).
